ChEMBL document CHEMBL5126521, “Analgesic Opioid Ligand Discovery Based on Nonmorphinan Scaffolds Derived from Natural Sources” (J Med Chem, 2022)
Square brackets hold non-standard residues; d marks the D form. Peptide text beside a SMILES is read from it. ξ: configuration not given here. Dmt = Cc1cc(O)cc(C)c1C[C@H](N)C(=O)O; ξGly(octyl) = CCCCCCCCC(N)C(=O)O

Key:
[1] = Toxicity in sc dosed mouse assessed as antinociceptive activity tolerance; format: organism-based; conditions: in vivo
Mu-type opioid receptor [2] = target: T1, Mu-type opioid receptor (Rattus norvegicus, UniProt P33535); assay: Agonist activity at recombinant rat MOP stably expressed in CHO-K1 cell membrane assessed as [35S]GTPgammaS binding; format: functional, cell membranes
[3] = Toxicity in po dosed mouse assessed as antinociceptive activity tolerance by tail flick assay; format: organism-based; conditions: in vivo
Mus musculus [4] = assay: Antinociceptive activity in po dosed mouse by tail flick assay; format: functional
Mus musculus [5] = assay: Antinociceptive activity in sc dosed mouse; format: functional
[6] = target: Kappa-type opioid receptor (Cavia porcellus, UniProt P41144); assay: Displacement of [3H]U69593 from guinea pig brain membrane KOP incubated for 1 hr by scintillation counter analysis; format: cell membranes
[7] = Displacement of [3H]DPDPE from guinea pig brain membrane DOP incubated for 2.5 hr by scintillation counter analysis; format: cell membranes, Cavia porcellus
Mu-type opioid receptor [8] = target: T2, Mu-type opioid receptor (Cavia porcellus, UniProt P97266); assay: Displacement of [3H]DAMGO from guinea pig brain membrane MOP incubated for 1 hr by scintillation counter analysis; format: cell membranes
[9] = target: T3, Delta-type opioid receptor (Rattus norvegicus, UniProt P33533); assay: Agonist activity at recombinant rat DOP stably expressed in CHO-K1 cell membrane assessed as [35S]GTPgammaS binding; format: functional, cell membranes
Mu-type opioid receptor [10] = target: T4, Mu-type opioid receptor (Mus musculus, UniProt P42866); assay: Displacement of [3H]DAMGO from mouse spinal cord MOP measured after 60 mins by liquid scintillation counter analysis; format: tissue-based
Mus musculus [11] = assay: Antinociceptive activity in mouse administered IT; format: functional
Mus musculus [12] = assay: Antinociceptive activity in mouse administered sc; format: functional
Mu-type opioid receptor [13] = target: T4, Mu-type opioid receptor; assay: Displacement of [3H]DAMGO from mouse brain cerebellum MOP incubated for 2 hrs by liquid scintillation counter analysis; format: tissue-based
[14] = target: Kappa-type opioid receptor (Mus musculus, UniProt P33534); assay: Displacement of [3H]U-69593 from mouse spinal cord KOP measured after 60 mins by liquid scintillation counter analysis; format: tissue-based
[15] = target: T5, Delta-type opioid receptor (Mus musculus, UniProt P32300); assay: Displacement of [3H]DPDPE from mouse brain cerebellum DOP incubated for 2 hrs by liquid scintillation counter analysis; format: tissue-based
Mus musculus [16] = assay: Antinociceptive activity in mouse administered po; format: functional
[17] = target: T5, Delta-type opioid receptor; assay: Displacement of [3H]deltorphin-II from mouse spinal cord DOP measured after 60 mins by liquid scintillation counter analysis; format: tissue-based
Mus musculus [18] = assay: Antinociceptive activity in mouse administered icv; format: functional
Mus musculus [19] = organism: Mus musculus; assay: Antinociceptive activity in mouse by tail pressure test; format: functional
Mu-type opioid receptor [20] = target: T2, Mu-type opioid receptor; assay: Antagonist activity at guinea pig ileum MOP; format: functional, tissue-based
Mus musculus [21] = assay: Antinociceptive activity in mouse administered IT by tail pressure test; format: functional
Mus musculus [22] = assay: Antinociceptive activity in Swiss albino mouse assessed tail flick response in warm water administered icv; format: functional
Mu-type opioid receptor [23] = target: T6, Mu-type opioid receptor (Homo sapiens, UniProt P35372); assay: Agonist activity at human recombinant MOP expressed in CHO cells by calcium mobilization assay; format: functional, cell-based
[24] = target: Kappa-type opioid receptor (Rattus norvegicus, UniProt P34975); assay: Inhibition of Wistar rat brain membrane KOP; format: cell membranes
Mu-type opioid receptor [25] = target: T1, Mu-type opioid receptor; assay: Inhibition of Wistar rat brain membrane MOP; format: cell membranes
[26] = target: T3, Delta-type opioid receptor; assay: Inhibition of Wistar rat brain membrane DOP; format: cell membranes
Mus musculus [27] = assay: Antinociceptive activity in Kunming mouse assessed as tail flick response in warm water administered iv; format: functional
[28] = Stability in mouse serum assessed as half life; format: ADME, cell-free
Mu-type opioid receptor [29] = target: T6, Mu-type opioid receptor; assay: Agonist activity at MOP (unknown origin) stably expressed in HEK293 cells assessed as forskolin stimulated cAMP accumulation incubated for 30 mins by radioactivity based scintillation counter analysis; format: functional, cell-based
Mu-type opioid receptor [30] = target: T6, Mu-type opioid receptor; assay: Displacement of [3H]DAMGO from MOP (unknown origin) stably expressed in HEK293 cells by liquid scintillation counter analysis; format: cell-based
[31] = target: T7, Delta-type opioid receptor (Homo sapiens, UniProt P41143); assay: Displacement of [3H]DPDPE from DOP (unknown origin) stably expressed in HEK293 cells by liquid scintillation counter analysis; format: cell-based
[32] = Stability in mouse brain homogenate assessed as half life; format: ADME, tissue-based
Mu-type opioid receptor [33] = target: T6, Mu-type opioid receptor; assay: Agonist activity at MOP (unknown origin) stably expressed in HEK293 cells assessed as forskolin stimulated cAMP accumulation incubated for 30 mins by radioactivity based scintillation counter analysis relative to control; format: functional, cell-based; conditions: filed as agonist
Mus musculus [34] = assay: Antinociceptive activity in Kunming mouse assessed tail flick response in warm water administered icv; format: functional
Mu-type opioid receptor [35] = target: T6, Mu-type opioid receptor; assay: Agonist activity at MOP in human SH-SY5Y cells assessed as forskolin stimulated cAMP accumulation incubated for 30 mins by Biotrak-EIA kit method; format: functional, cell-based
Rattus norvegicus [36] = assay: Antinociceptive activity in Sprague-Dawley rat assessed as tail flick response in warm water administered iv; format: functional
Mu-type opioid receptor [37] = target: T6, Mu-type opioid receptor; assay: Agonist activity at human MOP expressed in CHO-K1 cell membrane assessed as [35S]GTPgammaS binding; format: functional, cell membranes
Rattus norvegicus [38] = assay: Antinociceptive activity in Sprague-Dawley rat assessed as tail flick response in warm water administered po; format: functional
[39] = target: T7, Delta-type opioid receptor; assay: Displacement of [3H]DPDPE from human DOP expressed in CHO-K1 cell membrane incubated for 60 mins by Microscint-counting analysis; format: cell membranes
Mu-type opioid receptor [40] = target: T6, Mu-type opioid receptor; assay: Displacement of [3H]DAMGO from human MOP expressed in CHO-K1 cell membrane incubated for 60 mins by Microscint-counting analysis; format: cell membranes
Mus musculus [41] = assay: Antinociceptive activity in ddY mouse assessed as tail-flick latency administered it by tail flick test; format: functional
Mus musculus [42] = assay: Antinociceptive activity in Std-ddY mouse at 100 mmHg pressure administered IT by tail pressure test; format: functional
Mus musculus [43] = assay: Antinociceptive activity in Std-ddY mouse at 100 mmHg pressure administered po by tail pressure test; format: functional
Mus musculus [44] = assay: Antinociceptive activity in Std-ddY mouse at 100 mmHg pressure administered icv by tail pressure test; format: functional
Mus musculus [45] = assay: Antinociceptive activity in Std-ddY mouse at 100 mmHg pressure administered sc by tail pressure test; format: functional
Mus musculus [46] = assay: Antinociceptive activity in ddY mouse assessed as tail-flick latency administered icv by tail flick test; format: functional

T6 sequence (P35372 whole entry): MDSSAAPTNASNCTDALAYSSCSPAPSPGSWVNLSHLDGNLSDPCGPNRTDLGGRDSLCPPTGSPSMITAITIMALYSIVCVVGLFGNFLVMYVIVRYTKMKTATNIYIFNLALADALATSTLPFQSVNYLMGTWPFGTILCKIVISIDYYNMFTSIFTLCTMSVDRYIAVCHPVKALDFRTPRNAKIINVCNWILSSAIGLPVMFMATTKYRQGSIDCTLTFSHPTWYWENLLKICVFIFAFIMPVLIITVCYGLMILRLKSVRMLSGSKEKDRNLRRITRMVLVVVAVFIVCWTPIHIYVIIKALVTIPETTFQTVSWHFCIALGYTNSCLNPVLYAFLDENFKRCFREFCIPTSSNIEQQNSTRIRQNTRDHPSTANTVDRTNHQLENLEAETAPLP
T1 sequence (P33535 whole entry): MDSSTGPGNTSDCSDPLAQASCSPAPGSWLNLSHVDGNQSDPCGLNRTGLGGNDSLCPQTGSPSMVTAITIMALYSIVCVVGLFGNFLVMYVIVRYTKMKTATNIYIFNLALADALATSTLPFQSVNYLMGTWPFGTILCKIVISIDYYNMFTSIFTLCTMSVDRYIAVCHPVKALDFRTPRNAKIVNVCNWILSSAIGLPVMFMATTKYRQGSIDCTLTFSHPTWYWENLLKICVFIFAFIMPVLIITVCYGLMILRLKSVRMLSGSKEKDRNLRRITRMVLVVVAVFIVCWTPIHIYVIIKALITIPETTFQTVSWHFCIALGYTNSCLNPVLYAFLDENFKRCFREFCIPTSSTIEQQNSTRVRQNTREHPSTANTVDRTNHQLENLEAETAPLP
T3 sequence (P33533 whole entry): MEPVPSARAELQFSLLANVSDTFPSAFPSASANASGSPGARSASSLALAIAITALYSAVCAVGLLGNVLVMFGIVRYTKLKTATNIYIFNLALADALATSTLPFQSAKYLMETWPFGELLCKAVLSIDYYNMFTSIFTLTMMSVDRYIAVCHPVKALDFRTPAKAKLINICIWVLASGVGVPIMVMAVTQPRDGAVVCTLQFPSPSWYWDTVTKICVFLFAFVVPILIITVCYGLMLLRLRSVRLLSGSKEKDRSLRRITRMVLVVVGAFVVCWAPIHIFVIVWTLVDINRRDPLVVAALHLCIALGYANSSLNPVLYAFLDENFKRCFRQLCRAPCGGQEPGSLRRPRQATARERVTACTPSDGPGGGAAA
T2 sequence (P97266 whole entry): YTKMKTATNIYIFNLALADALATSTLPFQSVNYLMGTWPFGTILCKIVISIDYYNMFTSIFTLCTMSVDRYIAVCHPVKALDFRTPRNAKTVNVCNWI
T4 sequence (P42866 whole entry): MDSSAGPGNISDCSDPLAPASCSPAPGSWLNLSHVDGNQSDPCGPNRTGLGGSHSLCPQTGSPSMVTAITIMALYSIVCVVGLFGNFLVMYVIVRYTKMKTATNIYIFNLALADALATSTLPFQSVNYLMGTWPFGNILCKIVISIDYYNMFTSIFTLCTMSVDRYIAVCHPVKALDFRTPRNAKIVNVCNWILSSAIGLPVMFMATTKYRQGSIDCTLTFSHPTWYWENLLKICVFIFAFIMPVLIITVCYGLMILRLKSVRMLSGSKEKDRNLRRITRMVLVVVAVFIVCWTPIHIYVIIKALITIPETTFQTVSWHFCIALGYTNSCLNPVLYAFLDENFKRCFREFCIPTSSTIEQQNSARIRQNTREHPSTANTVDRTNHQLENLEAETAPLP
Chain of Kappa-type opioid receptor (Cavia porcellus, UniProt P41144) (P41144 whole entry): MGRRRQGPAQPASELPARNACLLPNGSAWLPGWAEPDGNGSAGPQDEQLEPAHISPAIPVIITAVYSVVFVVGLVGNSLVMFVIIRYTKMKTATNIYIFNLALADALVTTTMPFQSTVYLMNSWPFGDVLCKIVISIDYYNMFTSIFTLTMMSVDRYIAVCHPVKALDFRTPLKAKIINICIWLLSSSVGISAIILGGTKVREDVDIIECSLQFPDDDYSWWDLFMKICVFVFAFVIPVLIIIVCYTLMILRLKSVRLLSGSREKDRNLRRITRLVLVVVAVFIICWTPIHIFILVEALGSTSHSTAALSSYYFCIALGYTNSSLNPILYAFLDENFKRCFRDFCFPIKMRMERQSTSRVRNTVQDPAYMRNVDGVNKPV
T7 sequence (P41143 whole entry): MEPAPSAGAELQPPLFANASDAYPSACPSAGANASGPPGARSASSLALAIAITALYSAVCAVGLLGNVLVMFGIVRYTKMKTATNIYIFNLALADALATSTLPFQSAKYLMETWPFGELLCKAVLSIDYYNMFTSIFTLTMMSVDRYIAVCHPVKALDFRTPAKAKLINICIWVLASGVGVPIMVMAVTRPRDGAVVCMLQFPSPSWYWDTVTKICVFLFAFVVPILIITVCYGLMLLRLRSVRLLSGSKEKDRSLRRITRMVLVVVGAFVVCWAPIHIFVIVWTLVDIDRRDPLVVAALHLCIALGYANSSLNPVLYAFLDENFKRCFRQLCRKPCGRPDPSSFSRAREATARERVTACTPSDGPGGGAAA
T5 sequence (P32300 whole entry): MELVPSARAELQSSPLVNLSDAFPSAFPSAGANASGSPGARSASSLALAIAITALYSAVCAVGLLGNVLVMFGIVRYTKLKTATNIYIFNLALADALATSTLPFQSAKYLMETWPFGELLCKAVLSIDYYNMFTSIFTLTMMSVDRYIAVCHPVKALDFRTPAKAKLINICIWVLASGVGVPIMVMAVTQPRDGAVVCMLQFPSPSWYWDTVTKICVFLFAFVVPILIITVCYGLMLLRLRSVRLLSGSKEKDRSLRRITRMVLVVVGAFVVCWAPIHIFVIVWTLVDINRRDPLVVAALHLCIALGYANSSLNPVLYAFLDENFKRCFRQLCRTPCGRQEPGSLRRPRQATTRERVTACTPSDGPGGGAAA
Chain of Kappa-type opioid receptor (Rattus norvegicus, UniProt P34975) (P34975 whole entry): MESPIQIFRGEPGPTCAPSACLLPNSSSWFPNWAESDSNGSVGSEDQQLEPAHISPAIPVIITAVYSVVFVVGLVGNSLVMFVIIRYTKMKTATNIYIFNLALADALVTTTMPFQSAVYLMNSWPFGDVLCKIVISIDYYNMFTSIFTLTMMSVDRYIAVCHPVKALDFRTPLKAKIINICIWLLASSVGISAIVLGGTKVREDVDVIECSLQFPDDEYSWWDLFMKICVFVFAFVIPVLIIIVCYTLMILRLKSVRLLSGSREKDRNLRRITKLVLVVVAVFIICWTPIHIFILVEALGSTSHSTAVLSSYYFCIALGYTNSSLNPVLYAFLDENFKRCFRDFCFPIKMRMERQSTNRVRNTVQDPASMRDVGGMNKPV
Chain of Kappa-type opioid receptor (Mus musculus, UniProt P33534) (P33534 whole entry): as the sequence (P34975 whole entry) above, with E11D, A17S, P51S, V308A counted along it

CC[C@@H]1CN2CC[C@]3(O)c4c(ccc(F)c4OC)N[C@@H]3[C@@H]2C[C@@H]1/C(=C\OC)C(=O)OC
ED50 [1]: 0.09 mg/kg | EC50 (Mu-type opioid receptor [2]): 18 nM | ED50 [3]: 0.45 mg/kg | ED50 (Mus musculus [4]): 0.26 mg/kg | ED50 (Mus musculus [5]): 0.06 mg/kg | Ki [6]: 29 nM | Ki [7]: 7 nM | Ki (Mu-type opioid receptor [8]): 2.1 nM | EC50 [9]: 61 nM

CC[C@@H]1CN2CC[C@]3(O)c4c(cccc4OC)N[C@@H]3[C@@H]2C[C@@H]1/C(=C\OC)C(=O)OC
ED50 [1]: 0.35 mg/kg | EC50 (Mu-type opioid receptor [2]): 250 nM | ED50 [3]: 2.2 mg/kg | ED50 (Mus musculus [4]): 1.3 mg/kg | ED50 (Mus musculus [5]): 0.3 mg/kg | Ki [6]: 55 nM | Ki [7]: 16 nM | Ki (Mu-type opioid receptor [8]): 6.4 nM | EC50 [9]: 1490 nM

N=C(N)NCCC[C@@H](NC(=O)[C@H](Cc1ccc(O)cc1)NC(=N)N)C(=O)N[C@@H](Cc1ccccc1)C(=O)NCCC(=O)O
Ki (Mu-type opioid receptor [10]): 12.9 nM | ED50 (Mus musculus [11]): 0.34 pmol | ED50 (Mus musculus [12]): 0.24 mg/kg | Ki (Mu-type opioid receptor [13]): 0.67 nM | Ki [14]: > 1000 nM | Ki [15]: 160 nM | ED50 (Mus musculus [16]): 19 mg/kg | Ki [17]: > 1000 nM

N=C(N)NCCC[C@@H](NC(=O)[C@@H](N)Cc1ccc(O)cc1)C(=O)N[C@@H](Cc1ccccc1)C(=O)NCC(=O)O (H-Y[dR]FG-OH)
ED50 (Mus musculus [18]): 10.3 pmol | ED50 (Mus musculus [19]): 5.8 pmol | IC50 (Mu-type opioid receptor [20]): 10.8 nM | ED50 (Mus musculus [21]): 1 pmol

CCNC(=O)C[C@H](NC(=O)[C@H](Cc1ccccc1)NC(=O)[C@H](Cc1ccccc1)NC(=O)[C@@H](CCCCNC(=O)C[C@H](NC(=O)[C@H](Cc1ccccc1)NC(=O)[C@H](Cc1ccccc1)NC(=O)CNC(=O)[C@@H](N)Cc1ccc(O)cc1)C(N)=O)NC(=O)[C@@H](N)Cc1ccc(O)cc1)C(N)=O
ED50 (Mus musculus [22]): 1.96 nmol | EC50 (Mu-type opioid receptor [23]): 5.01 nM | IC50 [24]: 32 nM | IC50 (Mu-type opioid receptor [25]): 26.2 nM | IC50 [26]: > 1000 nM

C=C(C(N)=O)[C@@H](NC(=O)[C@H](Cc1c[nH]c2ccccc12)NC(=O)[C@@H](C)N(C)C(=O)[C@@H](N)Cc1c(C)cc(O)cc1C)c1ccco1
ED50 (Mus musculus [27]): 0.382 mg/kg | half-life [28]: ≥ 5 h | EC50 (Mu-type opioid receptor [29]): 0.0018 nM | Ki (Mu-type opioid receptor [30]): 0.011 nM | Ki [31]: 33.3 nM | half-life [32]: ≥ 5 h | Emax (Mu-type opioid receptor [33]): 98.3% | ED50 (Mus musculus [34]): 0.000695 µmol/kg

CCCCCCCCC(N)C(=O)N[C@@H](Cc1c(C)cc(O)cc1C)C(=O)N1CCC[C@H]1C(=O)N[C@@H](Cc1c[nH]c2ccccc12)C(=O)N[C@@H](Cc1ccccc1)C(N)=O (stereo not given in full) (H-[ξGly(octyl)][Dmt]PWF-NH2)
EC50 (Mu-type opioid receptor [35]): 1.3 nM | ED50 (Rattus norvegicus [36]): 1 µmol/kg

NC(=O)[C@@H]1CCCCNC(=O)CC[C@@H](NC(=O)[C@@H](N)Cc2ccc(O)cc2)C(=O)N[C@@H](Cc2ccccc2)C(=O)N[C@@H](Cc2ccccc2)C(=O)N1
EC50 (Mu-type opioid receptor [37]): 1.5 nM | ED50 (Rattus norvegicus [38]): 3.5 µmol | Ki [39]: 82 nM | Ki (Mu-type opioid receptor [40]): 0.96 nM

N=C(N)NCCC[C@@H](NC(=O)[C@@H](N)Cc1ccc(O)cc1)C(=O)N[C@@H](Cc1ccccc1)C(=O)NCCC(=O)O
ED50 (Mus musculus [41]): 0.3 pmol | ED50 (Mus musculus [42]): 0.5 pmol | ED50 (Mus musculus [43]): 70.1 µmol/kg | ED50 (Mus musculus [44]): 3.1 pmol | ED50 (Mus musculus [45]): 0.8 µmol/kg | ED50 (Mus musculus [46]): 1.3 pmol
